Measurements reported in US12527873B2, “Glycocalyx mimetic coatings” (The Regents of The University of California, priority 2019, dated 2026).

Columns and labels:
[1] = system: stimulated human cardiac microvascular endothelial cells (HCMECs); experiment: Platelet activation on stimulated HCMECs (NAP-2, PF-4 in supernatant); format: cell-based; settings: DS-IkL 30 μM, IkL peptide 450 μM, DS 30 μM, platelets 1 hour on TNF-α/IL-1β stimulated HCMECs
Excerpt: Enhanced platelet activation and binding have been implicated in a multitude of chronic inflammatory diseases, including acute coronary and pulmonary syndromes (Lisman, T, Cell Tissue Res. 2018; 371(3):567-576). Activated platelets release cytokines such as platelet factor 4 (PF-4) and neutrophil activating peptide 2 (NAP-2) that can in turn activate neutrophils (Pitchford, S., D. Pan, and H. C. Welch. Curr. Opin. Hematol. 2017; 24(1):23-31). To test if treatment of inflamed endothelial cells with DS-IkL could reduce the activation of platelets as assessed by PF-4 and NAP-2 levels, platelets were allowed to interact with stimulated human cardiac microvascular endothelial cells (HCMECs, PromoCell) under standard culture conditions for 1 hour before supernatant was collected. Stimulation media was prepared by diluting to 0.4 ng/ml tumor necrosis factor alpha (TNF-α) and 0.3 ng/ml interleukin 1 beta (IL-1β) in complete endothelial growth medium MV (PromoCell).

[2] = biological target: T1, E-selectin (Homo sapiens, UniProt P16581); experiment: PMN binding to E-selectin coated microspheres (flow cytometry); format: cell-based; set-up: purchased R&D Systems; settings: IkL peptide 450 μM, DS-IkL15 30 μM; p<0.05; FIG. 9
T1 sequence (P16581 22-610): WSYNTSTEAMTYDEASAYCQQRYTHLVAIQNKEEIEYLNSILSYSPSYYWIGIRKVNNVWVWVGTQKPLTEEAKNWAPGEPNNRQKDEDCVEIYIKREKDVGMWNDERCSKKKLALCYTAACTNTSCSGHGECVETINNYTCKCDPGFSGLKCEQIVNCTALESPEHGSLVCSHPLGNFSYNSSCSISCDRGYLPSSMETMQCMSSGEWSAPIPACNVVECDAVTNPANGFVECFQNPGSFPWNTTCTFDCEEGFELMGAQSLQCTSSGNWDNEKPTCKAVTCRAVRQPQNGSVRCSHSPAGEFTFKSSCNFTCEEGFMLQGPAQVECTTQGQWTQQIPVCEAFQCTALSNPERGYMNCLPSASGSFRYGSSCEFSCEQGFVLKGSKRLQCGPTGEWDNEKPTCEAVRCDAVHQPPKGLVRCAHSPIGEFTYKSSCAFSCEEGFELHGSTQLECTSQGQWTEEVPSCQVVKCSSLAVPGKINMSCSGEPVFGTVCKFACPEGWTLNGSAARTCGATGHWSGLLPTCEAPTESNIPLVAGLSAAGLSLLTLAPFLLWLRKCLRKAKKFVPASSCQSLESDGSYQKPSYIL
Description: To validate the new molecule, fluorescent carboxylate microspheres were coated with recombinant human E-selectin (R&D Systems, Minneapolis, MN) using a PolyLink coupling kit (PolySciences Inc., Warrington, PA). Functionalized microspheres were treated with HBSS^+/+, EC-SEAL (30 μM), DS-IkL10 (30 μM), DS-IkL15 (30 μM), or GMI-1070 ([…]) for one hour. During this time, human neutrophils were isolated from whole blood using an established protocol. Briefly, 6 mL of whole blood were collected into an EDTA coated tube in accordance with the UC Davis Internal Review Board under IRB assurance No. 00004557. Neutrophils were isolated using an EasyStep Direct Human Neutrophil Isolation Kit (Stem Cell Technologies, Vancouver, BC, Canada), centrifuged, and resuspended in HBSS^+/+, with 0.1% human serum albumin (HSA) at 1×10^6 cells/mL. Cells were labeled with fluorescently tagged anti-CD15 for detection. Microspheres were pelleted and resuspended in 100 uL labeled neutrophils, then incubated for 30 minutes at room temperature with rotation (150 rpm). Samples were fixed in 4% PFA and read on an Attune NxT Flow Cytometer. Data was analyzed using FlowJo flow cytometry software (San Diego, Calif.) to determine the top three performing variants. This was repeated 2-6 times for an n of 3-7. […]

[3] = biological target: T1, E-selectin; experiment: Binding to E-selectin coated surfaces (fluorescently tagged molecule, MFI); settings: increasing concentrations; MFI normalized to vehicle (HBSS); FIG. 6
Description: (§1) P- and E-selectin coated surfaces were treated with fluorescently tagged DS-IkL (30 μM, empty bars) or DS (30 μM, filled bars). […] Data are represented as means±SEM. *p<0.05, **p<0.01, ***p<0.001. n=3 independent experiments.

[4] = biological target: T2, P-selectin (Homo sapiens, UniProt P16109); experiment: Binding to P-selectin coated surfaces (fluorescently tagged molecule, MFI); settings: increasing concentrations; MFI normalized to vehicle (HBSS); FIG. 6
T2 sequence (P16109 42-830): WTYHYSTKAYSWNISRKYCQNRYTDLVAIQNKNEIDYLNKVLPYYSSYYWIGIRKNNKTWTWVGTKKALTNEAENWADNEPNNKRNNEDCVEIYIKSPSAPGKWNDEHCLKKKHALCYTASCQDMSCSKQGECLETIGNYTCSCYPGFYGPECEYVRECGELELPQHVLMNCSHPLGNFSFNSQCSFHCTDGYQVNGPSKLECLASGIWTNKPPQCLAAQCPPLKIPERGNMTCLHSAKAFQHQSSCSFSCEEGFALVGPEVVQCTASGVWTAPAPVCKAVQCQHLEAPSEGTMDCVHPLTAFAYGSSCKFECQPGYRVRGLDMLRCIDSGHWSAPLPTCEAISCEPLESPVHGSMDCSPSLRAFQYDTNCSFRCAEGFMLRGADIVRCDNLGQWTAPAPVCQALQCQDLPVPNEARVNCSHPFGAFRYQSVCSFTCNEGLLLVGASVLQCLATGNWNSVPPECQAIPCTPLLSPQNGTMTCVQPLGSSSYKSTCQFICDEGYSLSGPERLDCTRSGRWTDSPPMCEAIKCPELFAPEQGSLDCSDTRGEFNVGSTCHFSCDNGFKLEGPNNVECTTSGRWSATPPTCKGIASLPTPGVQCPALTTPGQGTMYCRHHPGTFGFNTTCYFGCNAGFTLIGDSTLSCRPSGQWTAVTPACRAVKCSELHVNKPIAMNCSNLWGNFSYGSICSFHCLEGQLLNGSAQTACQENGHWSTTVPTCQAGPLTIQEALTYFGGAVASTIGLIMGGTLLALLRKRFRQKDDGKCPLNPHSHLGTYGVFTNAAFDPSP
Description: as §1

| neutrophil adhesion to microspheres [2] | binding to E-selectin coated surfaces [3] | binding to P-selectin coated surfaces [4] | Substance | platelet activation as assessed by NAP-2 ([1]; FIG. 7) | platelet activation as assessed by PF-4 ([1]; FIG. 8) |
| --- | --- | --- | --- | --- | --- |
| approximately 75 % of control |  |  | Ile-(D)lys-Leu-Leu-(D)pro-Hyp-Arg [IkL peptide] | reduced | reduced |
|  | not observed in the DS group | not observed in the DS group | dermatan sulfate [DS] |  |  |
